How the values were obtained:
Puccinia triticina = assay: Wheat brown rust (PUCCRT) disease control on wheat seedlings; format: in vivo; design: key to PUCCRT 3DC, HV activity at 100 ppm (% control rating) / PUCCRT disease control, 3DC / PUCCRT 1DP disease control rating, HV activity / PUCCRT 3DC disease control rating, HV activity / PUCCRT 3DC, LV activity at 125.1 g/H (% Control rating) / PUCCRT 1DP, LV activity at 125.1 g/H (% Control rating) / PUCCRT 3DC disease control rating, LV activity at 125.1 g/H / PUCCRT 1DP disease control rating, LV activity at 125.1 g/H / PUCCRT 3DC disease control rating, HV activity at 100 ppm / PUCCRT 1DP disease control rating, HV activity at 100 ppm / HV activity at 100 ppm PUCCRT 3DC (disease control rating) / LV activity at 125.1 g/H PUCCRT 1DP (disease control rating) / LV activity at 125.1 g/H PUCCRT 3DC (disease control rating): A: > 80; B: ≤ 80; C: Not Tested; D: No Activity Observed in the Reported Assay; conditions: for PUCCRT 1DP disease control rating, HV activity / PUCCRT 3DC disease control rating, HV activity: HV application at 100 ppm
Zymoseptoria tritici = assay: Leaf blotch of wheat (SEPTTR) disease control on wheat seedlings; format: in vivo; design: key to SEPTTR 1DP, HV activity at 100 ppm (% control rating) / SEPTTR 3DC, HV activity at 100 ppm (% control rating) / SEPTTR disease control, 1DP / SEPTTR disease control, 3DC / SEPTTR 1DP disease control rating, HV activity / SEPTTR 3DC disease control rating, HV activity / SEPTTR 3DC, LV activity at 125.1 g/H (% Control rating) / SEPTTR 1DP, LV activity at 125.1 g/H (% Control rating) / SEPTTR 1DP disease control rating, LV activity at 125.1 g/H / SEPTTR 3DC disease control rating, LV activity at 125.1 g/H / SEPTTR 3DC disease control rating, HV activity at 100 ppm / SEPTTR 1DP disease control rating, HV activity at 100 ppm / HV activity at 100 ppm SEPTTR 3DC (disease control rating) / HV activity at 100 ppm SEPTTR 1DP (disease control rating) / LV activity at 125.1 g/H SEPTTR 1DP (disease control rating) / LV activity at 125.1 g/H SEPTTR 3DC (disease control rating): A: > 80; B: ≤ 80; C: Not Tested; D: No Activity Observed in the Reported Assay; conditions: for SEPTTR 1DP disease control rating, HV activity / SEPTTR 3DC disease control rating, HV activity: HV application at 100 ppm
[1] = 1 Day Protectant, wheat brown rust
[2] = 3 Day Curative, wheat brown rust
[3] = 1 Day Protectant, wheat leaf blotch
[4] = 3 Day Curative, wheat leaf blotch
[5] = low volume application, 125.1 g/H, 1 day protectant
[6] = low volume application, 125.1 g/H, 3 day curative
[7] = high volume application, 100 ppm, 1 day protectant
[8] = high volume application, 100 ppm, 3 day curative
[9] = low volume application, 125.1 g/H, 1 Day Protectant
[10] = low volume application, 125.1 g/H, 3 Day Curative

SMILES	PUCCRT 1DP disease control rating, HV activity (Puccinia triticina; [1])	PUCCRT 3DC disease control rating, HV activity (Puccinia triticina; [2])	SEPTTR 1DP disease control rating, HV activity (Zymoseptoria tritici; [3])	SEPTTR 3DC disease control rating, HV activity (Zymoseptoria tritici; [4])	PUCCRT 1DP disease control rating, LV activity at 125.1 g/H (Puccinia triticina; [5])	PUCCRT 3DC disease control rating, LV activity at 125.1 g/H (Puccinia triticina; [6])	SEPTTR 1DP disease control rating, LV activity at 125.1 g/H (Zymoseptoria tritici; [5])	SEPTTR 3DC disease control rating, LV activity at 125.1 g/H (Zymoseptoria tritici; [6])	also measured
CCC(CCC(C)C)C(OCC1CC1)C(C)OC(=O)C(C)NC(=O)c1nccc(OC)c1O (stereo not shown) [Cmpd 318]	D	B (≤ 80)	D	B (≤ 80)					
COc1ccnc(C(=O)NC(C)C(=O)OC(C)C(OCC2CC2)C2CCCC2)c1OCOC(C)=O (stereo not shown) [Cmpd 914]					A (> 80)	A (> 80)	B (≤ 80)	B (≤ 80)	
C=CC[C@@H](Oc1ccc(Cl)cc1Cl)[C@H](C)OC(=O)[C@H](C)NC(=O)c1nccc(OC)c1OC(C)=O [Cmpd 697]					A (> 80)	A (> 80)	D	B (≤ 80)	
COc1ccnc(C(=O)NC(C(=O)OC(C)C(Oc2ccc3ccccc3c2)C(C)C)C(C)C)c1O (stereo not shown) [Cmpd 401]	A (> 80)	B (≤ 80)	B (≤ 80)	B (≤ 80)					
CCCO[C@@H](C(C)C)[C@H](C)OC(=O)[C@H](C)NC(=O)c1nccc(OC)c1OC(C)=O [Cmpd 855]					B (≤ 80)	B (≤ 80)	D	D	
COc1ccnc(C(=O)NC(C)C(=O)OC(C)C(OCC(C)C)c2ccccc2)c1O (stereo not shown) [Cmpd 819]									PUCCRT 1DP disease control rating, HV activity at 100 ppm (Puccinia triticina; [7]): D; PUCCRT 3DC disease control rating, HV activity at 100 ppm (Puccinia triticina; [8]): B (≤ 80); SEPTTR 1DP disease control rating, HV activity at 100 ppm (Zymoseptoria tritici; [7]): B (≤ 80); SEPTTR 3DC disease control rating, HV activity at 100 ppm (Zymoseptoria tritici; [8]): D
CCCOC(CC)C(Oc1ccccc1)C(C)OC(=O)C(NC(=O)c1nccc(OC)c1OCOC(C)=O)C(C)C (stereo not shown) [Cmpd 447]	A (> 80)	A (> 80)	A (> 80)	B (≤ 80)					
COc1ccnc(C(=O)NC(C)C(=O)OC(C)COCC2CC2)c1OC(C)=O (stereo not shown) [Cmpd 529]									PUCCRT 1DP, LV activity at 125.1 g/H (% Control rating) (Puccinia triticina; [9]): D; PUCCRT 3DC, LV activity at 125.1 g/H (% Control rating) (Puccinia triticina; [10]): D; SEPTTR 1DP, LV activity at 125.1 g/H (% Control rating) (Zymoseptoria tritici; [9]): B (≤ 80); SEPTTR 3DC, LV activity at 125.1 g/H (% Control rating) (Zymoseptoria tritici; [10]): B (≤ 80)
COc1ccnc(C(=O)NC(C)C(=O)OC(C)C(Oc2ccc(Cl)cc2Cl)c2ccccc2)c1OC(C)=O (stereo not shown) [Cmpd 867]					A (> 80)	B (≤ 80)	A (> 80)	A (> 80)	
COc1ccnc(C(=O)N[C@@H](C)C(=O)O[C@@H](C)[C@@H](CC(C)C)Oc2ccc3ccccc3c2)c1O [Cmpd 1046]									HV activity at 100 ppm PUCCRT 1DP (disease control rating) (Puccinia triticina; HV application, 100 ppm, 1 Day Protectant, wheat brown rust): A (> 80); HV activity at 100 ppm PUCCRT 3DC (disease control rating) (Puccinia triticina; HV application, 100 ppm, 3 Day Curative, wheat brown rust): A (> 80); HV activity at 100 ppm SEPTTR 1DP (disease control rating) (Zymoseptoria tritici; HV application, 100 ppm, 1 Day Protectant, wheat leaf blotch): D; HV activity at 100 ppm SEPTTR 3DC (disease control rating) (Zymoseptoria tritici; HV application, 100 ppm, 3 Day Curative, wheat leaf blotch): D

Source: patent US20180000085A1, “USE OF PICOLINAMIDE COMPOUNDS WITH FUNGICIDAL ACTIVITY” (DOW AGROSCIENCES LLC, priority 2014, published 2018)
